This test relates to biopsy-derived HSV-2-specific CD4 TRM. Kind of test: single peptide test with biopsy-derived HSV-2-specific CD4 TRM, IFN-γ secretion. In kind it is cell-based, human. As to conditions: peptide at 1 μg/ml; HLA-expressing cells as antigen presenting cells; media control gave no response. The source says: FIG. 14. CD4 epitopes: peptide pools→singles. For this example, biopsy-derived cells recognize Cos7 co-transfected with the combination of a subject HLA molecule and HSV-2 UL19 gene. A rectangular matrix of peptides covering UL19 was created and row and column pools were made as indicated on the X axis of the top graph. Only one row pool and one column pool gave a positive proliferative response using the assay described in FIG. 13. The peptide at the intersection of the positive row and column pools, UL19 305-319 (SEQ ID NO: 14), was tested at 1 μg/ml using HLA-expressing cells as antigen presenting cells and biopsy-derived HSV-2-specific CD4 TRM as responder cells. The readout was IFN-γ secretion, as shown in the bottom graphs.
The technology used to determine the fine peptide specificity of biopsy-derived CD4 T cells that recognize HSV-2 has been described in Johnston, et al., Journal of Virology 88, 4921-4931 (2014). In brief, every HSV-2 was expressed. […] T cell activation was detected by proliferation or IFN-γ secretion assays. Once the identity of reactive HSV-2 proteins were determined, peptides from within that protein were tested in repeat assays as described in Johnston, et al., Journal of Virology 88, 4921-4931, (2014). In some cases, dose-response assays were conducted as described in Jing, et al., Journal of Immunology 196, 2205-2218, (2016). […]

As to TYGEMVLNGANLVTA [SEQ ID NO: 14], the “IFN-γ response from the biopsy cells” value was “elicited an IFN-γ response”.

The values above are taken from patent US20200164060A1, “HERPES SIMPLEX VIRUS VACCINE EPITOPES SP[…] TISSUE RESIDENT MEMORY T CELLS” (priority 2017, published 2020).
